How the values were obtained:
Format in all cases: in vivo
winter wheat, TRZAW [1] = assay: Method A: safener seed treatment, herbicide post-emergence, greenhouse crop damage test; conditions: safener seed treatment 0.5 g/kg only, no herbicide
Description: (§1) For the safener seed treatment, sufficient seeds were weighed into screw top glass bottles approximately twice the volume of the seeds.
(§2) The safener (mefenpyr-diethyl, formulated as suspension concentrate (SC)) was weighed out so that the required rates (g a.i./kg seed) would be obtained, dissolved in water (1 ml water per 10 g of seeds), and added to the seeds to produce a slurry.
(§3) The bottles were capped and then placed in an overhead shaker (set at medium speed for up to 1 hour) so that the seeds were evenly coated with the slurry. The bottles were uncapped and the seeds were sown as described above.
(§4) For the seed treatment process, the blind formulation (the SC formulation without the safener mefenpyr-diethyl) was used as seed treatment as described above.
Post-emergence application of the herbicide was done when the plants had reached growth stage BBCH11.
(§5) After application, the test plants were kept in the greenhouse under good growth conditions.
(§6) Values in the table below are mean values from at least 3 replicates.

winter wheat, TRZAW [2] = assay: Method D: safener seed treatment, herbicide and safener tank mix pre-emergence, greenhouse crop damage test; conditions: no herbicide
Description: as §1, §2, §3, §4
The compounds were sprayed to the soil surface as an aqueous suspension at an equivalent water application rate of 300 l/ha.
(§7) The combination of herbicide and safener was applied as a tank mix.
as §5, §6

winter wheat, TRZAW [3] = assay: Method C: safener seed treatment, herbicide and safener tank mix post-emergence, greenhouse crop damage test; conditions: no herbicide
Description: as §1, §2, §3, §4
Post-emergence application was done when the plants had reached growth stage BBCH11.
The safener (mefenpyr-diethyl) was formulated as wettable powder (WP).
The compounds were sprayed onto the green parts of the plants as an aqueous suspension at an equivalent water application rate of 300 l/ha.
as §7, §5, §6

[4] = safener seed treatment 0.5 g/kg only

Compound: CCOC(=O)C1=NN(c2ccc(Cl)cc2Cl)C(C)(C(=O)OCC)C1 (centres unmarked) [Safener seed treatment, ethyl 1-(2,4-dichlorophenyl)-5-(ethoxycarbonyl)-5-methyl-2-pyrazoline-3-carboxylate]
- % crop damage (winter wheat, TRZAW [1]): 0%
- % crop damage (winter wheat, TRZAW [2]; safener 200 g/ha in tank mix only, pre-emergence, 14 days after application): 5%
- % crop damage (winter wheat, TRZAW [2]; [4]): 2%
- % crop damage (winter wheat, TRZAW [3]; safener 200 g/ha in tank mix only, post-emergence, 14 days after application): 5%
- % crop damage (winter wheat, TRZAW [3]; [4]): 0%

— patent US11219209B2, “Method of reducing crop damage” (Bayer Aktiengesellschaft, priority 2018, dated 2022)
